Test results published in patent US20200397894A1, “COMPOSITIONS AND METHODS FOR TREATING CANCER” (University of Virginia Patent Foundation, priority 2016, published 2020).

Legend:
[1] = system: DM93 cells; experiment: BrdU staining and flow cytometry (rereplication); assay type: cell-based, human; settings: DM93, pevonedistat
Method: The effects of pevonedistat and/or silencing of cell cycle-associated proteins on cell cycle distribution or rereplication were assessed by flow cytometry according to the manufacturer's instructions. Different melanoma lines were transfected with si-GL2, si-CDT2, si-CDT1, si-SET8, si-p21, or si-geminin for a time ranging from 24 to 96 hours. At the end of treatment, cells were pulsed with BrdU (10 nM) for 1 hour in the dark prior to harvesting. Cells were washed with PBS and staining solution before the fixation and permeabilization steps according to the manufacturer's instructions. Cells were subsequently stained with anti-BrdU antibody solution for 20 minutes at room temperature, washed, and stained with 7-AAD solution for 30 minutes at 4° C. The cells were resuspended in 1 ml of staining buffer and kept overnight at 4° C. before analysis. Samples were analyzed on a FFACSCAN™ (Becton, Dickinson and Company, Franklin Lakes, N.J., United States of America), and different phases of the cell cycle were determined using FLOWJO® (FLOWJO, LLC, Ashland, Oreg., United States of America) and ModFit (Verity Software House, Topsham, Me., United States of America) software.

[2] = system: DM93 cells; experiment: Cell cycle distribution and rereplication by propidium iodide staining and FACS; assay type: cell-based, human; settings: for DM93 cells exhibiting >4N DNA content / Percent Cells in S and G2/M / Percent Cells in sub-G1: 1 μM pevonedistat; for Percent Cells in S and G2/M / Percent Cells in sub-G1 / Percent of Cells in S and G2/M / Percent of Cells in sub-G1: DM93 cells; for rereplication after transient exposure and washout: analyzed 48 hours later
Method: The effects of pevonedistat, vemurafenib, and/or silencing of various cell cycle-associated proteins by siRNA on cell cycle distribution and rereplication were assessed by propidium iodide staining and flow cytometry of asynchronous melanoma cultures. Synchronization of cells was not employed to avoid bias and to be able to measure the impact of these perturbations on proliferating cancer cells. […] Cells were washed with cold PBS, harvested, and fixed in 70% (v/v) ethanol. Cells were subsequently treated with 20 μg of DNase-free RNase and stained with propidium iodide according to instructions of the manufacturer. Samples were analyzed on a FACSCAN™ (Becton, Dickinson and Company, Franklin Lakes, N.J., United States of America) and G0-G1, S, and G2-M fractions were segmented, and apoptotic (sub-G1 DNA content) and rereplicating (>G2/M DNA content) fractions were determined using FLOWJO® (FLOWJO, LLC, Ashland, Oreg., United States of America) and ModFit (Verity Software House, Topsham, Me., United States of America) software.

[3] = system: Trl46 HNSCC cells; settings: Trl46, 1 μM pevonedistat; cited from earlier work
[4] = system: DM331 xenografts; experiment: Melanoma flank xenograft in nude mice; assay type: in vivo; settings: vs. vehicle; PLX4720 in rodent diet 417 mg/kg
Method: (§1) All animal experiments were performed after approval of animal protocols by the Animal Care and Use Committee (ACUC) of the University of Virginia. Animals were housed and handled in accordance with the guidelines of the ACUC of the University of Virginia. The effect of pevonedistat on melanoma growth was tested in flank xenograft models. Foxn1^nu (20-25 g body weight, 4-5 weeks old females) athymic nude immune-deficient mice (Harlan Laboratories, now Envigo, Indianapolis, Ind., United States of America) were used in this study. Pevonedistat was dissolved in sterile 10% DMSO containing PBS (stock 1 mM), filtered, and stored in −20° C. until use. DM93, VMM39, SLM2, DM331, or SK-MEL-24 (2×10^6) melanoma cells were implanted in both flanks of immune-deficient mice (n=12 mice per group) and tumor growth was monitored until they grow to an average volume of 150-200 mm^3, and mice were randomized into groups for treatment. Animals were administered 0.2 mL pevonedistat solution (30 or 60 mg/kg body weight as indicated) intraperitoneally on a schedule of two cycles of five-day treatment followed by five treatment-free days, for 3 weeks, or more as indicated. Control animals were treated with an equal volume of sterile vehicle (10% DMSO in PBS). Where indicated, mice received control rodent diet, or rodent diet with 417 mg/kg PLX4720 (Research Diets, Inc. New Brunswick, N.J., United States of America). Tumors were measured with an electronic caliper every other day for 3 weeks post-drug injection. Animal weight was recorded once a week to detect any weight loss due to the toxicity of drug treatment or tumor burden. At the end of the treatment, animals were euthanized and tumors harvested for further processing. The results shown are mean tumor volumes±s.e.m; *p<0.05, **p<0.01, ***p<0.001.

[5] = system: VMM39 xenografts; experiment: Melanoma flank xenograft in nude mice; assay type: in vivo; settings: 60 mg/kg; p=1.8×10^−5
Method: as §1

[6] = system: SLM2 xenografts; experiment: Melanoma flank xenograft in nude mice; assay type: in vivo; settings: 60 mg/kg; p=2.3×10^−3
Method: as §1

[7] = system: DM93 melanoma xenografts; experiment: Melanoma flank xenograft in nude mice; assay type: in vivo
Method: as §1

[8] = system: SqCC/Y1 HNSCC cells; settings: SqCC/Y1, 0.5 μM pevonedistat; cited from earlier work
[9] = 24 hours, 0.025 μM pevonedistat
[10] = 24 hours, 0.100 μM pevonedistat
[11] = 24 hours, 0.500 μM pevonedistat (first row so printed, r9)
[12] = 24 hours, 0.500 μM pevonedistat (r11)
[13] = 24 hours, 0.750 μM pevonedistat
[14] = 24 hours, 1.000 μM pevonedistat
[15] = 24 hours, 2.000 μM pevonedistat

## NS(=O)(=O)OCC1CC(n2ccc3c(NC4CCc5ccccc54)ncnc32)CC1O [pevonedistat, ((1S,2S,4R)-4-(4-((1S)-2,3-Dihydro-H-inden-1-ylamino)-7H-pyrrolo(2,3-d)pyrimidin-7-yl)-2-hydroxycyclopentyl)methyl sulphamate]
[1]; 24 hours
  cells with rereplication within the same cell cycle (BrdU labeling): 17.3%
[1]; 48 hours
  cells with rereplication within the same cell cycle (BrdU labeling): 61.7%
[2]; by 72 hours of treatment
  DM93 cells exhibiting >4N DNA content: 68%
[2]; within 24 hours
  DM93 cells exhibiting >4N DNA content: 18%
[2]; DM93, 1 μM pevonedistat for 48 hours
  cells undergoing rereplication: 45%
[2]; DM93, 1 μM pevonedistat, 24 hours
  Percent of Cells in S and G2/M at 24 hours: 27.2%
[2]; DM93, 1 μM pevonedistat, 72 hours
  Percent of Cells in S and G2/M at 72 Hours: 59.2%
[2]; DM93, 72 hours post-treatment
  cells undergoing rereplication: 60%
[2]; DM93, analyzed at 24 hours
  lowest drug concentration at which rereplication was observed: 500 nM
[2]; DM93, pevonedistat, 72 hours
  cells with sub-G1 DNA content: ~7%
[2]; 3 hours
  Percent Cells in S and G2/M: 4.05%
  Percent Cells in sub-G1: 1.94%
[2]; 6 hours
  Percent Cells in S and G2/M: 13%
  Percent Cells in sub-G1: 0.49%
[2]; 24 hours
  Percent Cells in S and G2/M: 17%
  Percent Cells in sub-G1: 1.4%
[2]; 48 hours
  Percent Cells in S and G2/M: 64.7%
  Percent Cells in sub-G1: 2.08%
[2]; 72 hours
  Percent Cells in S and G2/M: 68.3%
  Percent Cells in sub-G1: 7.08%
[2]; [9]
  Percent of Cells in S and G2/M: 0.57%
  Percent of Cells in sub-G1: 1.72%
[2]; [10]
  Percent of Cells in S and G2/M: 2.21%
  Percent of Cells in sub-G1: 5.62%
[2]; [11]
  Percent of Cells in S and G2/M: 1.11%
  Percent of Cells in sub-G1: 1.61%
[2]; [12]
  Percent of Cells in S and G2/M: 18.1%
  Percent of Cells in sub-G1: 4.49%
[2]; [13]
  Percent of Cells in S and G2/M: 47.4%
  Percent of Cells in sub-G1: 2.05%
[2]; [14]
  Percent of Cells in S and G2/M: 56.6%
  Percent of Cells in sub-G1: 1.21%
[2]; [15]
  Percent of Cells in S and G2/M: 66%
  Percent of Cells in sub-G1: 0.53%
[2]; treated 12 hours
  rereplication after transient exposure and washout: 18%
[2]; treated 24 hours
  rereplication after transient exposure and washout: 60%
[3]
  apoptosis (% of cells): 65%
[4]
  growth of DM331 xenografts: inhibited
[5]
  growth of VMM39 xenografts: significantly inhibited the growth
[6]
  growth of SLM2 xenografts: significantly inhibited the growth
[7]; 30 mg/kg, p=0.009
  growth of sg-control DM93 xenografts: significantly inhibited the growth
[7]; 30 mg/kg, p=0.092
  growth of sg-p21-1 DM93 xenografts: failed to inhibit the growth
[7]; 30 mg/kg, p=0.66
  growth of sg-SET8-1 DM93 xenografts: failed to inhibit the growth
[7]; 30 or 60 mg/kg
  tumor regression: did not result in tumor regression
[7]; either drug concentration, up to 10 days following cessation
  tumor regrowth after cessation of treatment: not detectable
[7]; nude mice, 30 or 60 mg/kg, 5 days on/5 days off, two cycles
  tolerability: well tolerated
[8]
  apoptosis (% of cells): 55%
